Measurements from PubChem BioAssay AID652112 (The Scripps Research Institute Molecular Screening Center, 2013).

Target: Serine/threonine-protein phosphatase PP1-alpha catalytic subunit (Homo sapiens) (UniProt P62136)
Assay: PP1 inhibitor potency on phosphorylase dephosphorylation, dose response, orthogonal assay for PP1 inhibitor probe project, biochemical, radiolabel, phosphorylase substrate, powder samples (AID 652112)
Details: purified PP1, 32P/33P-phosphorylase dephosphorylation, scintillation

Chain of Serine/threonine-protein phosphatase PP1-alpha catalytic subunit (Homo sapiens) (P62136 whole entry, looked up): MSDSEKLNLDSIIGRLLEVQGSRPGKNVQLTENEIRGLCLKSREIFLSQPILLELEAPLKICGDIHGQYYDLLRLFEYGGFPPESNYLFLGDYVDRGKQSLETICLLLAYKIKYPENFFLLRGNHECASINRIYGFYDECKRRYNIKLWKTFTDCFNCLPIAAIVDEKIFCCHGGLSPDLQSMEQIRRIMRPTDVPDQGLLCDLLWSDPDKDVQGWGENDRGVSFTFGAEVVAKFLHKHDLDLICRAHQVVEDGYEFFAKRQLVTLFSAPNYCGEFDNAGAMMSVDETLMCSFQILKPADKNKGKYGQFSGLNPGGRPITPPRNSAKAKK

## CN1CCN(C(c2ccccn2)c2cc(Cl)c3cccnc3c2O)CC1 (stereo not given)
  IC50: 4.89 µM

## CCOC(=O)c1sc2nc3c(SCC(=O)O)cc(C(=O)c4cc(F)ccc4O)cn3c(=O)c2c1C
  IC50: 8.54 µM

## COc1ccc(NC(=O)C2C3CCC(O3)C2C(=O)O)c(OC)c1 (stereo not given)
  IC50: 18.9 µM

## N#Cc1c(-c2ccc(Cl)cc2)cc(-c2cccs2)nc1SCC(=O)O
  IC50: 21.9 µM

## CCn1c2ccccc2c2cc(NC(=O)COC(=O)c3ccc(NC(=O)CC#N)cc3)ccc21
  IC50: 38 µM
